Assay results published in patent publication US7053041B1, “Methods and compositions useful for inhibition of αvβ5mediated angiogenesis” (The Scripps Research Institute, priority 1996, dated 2006).
“Also recorded” adds a separate entry of the source. [ ]: non-standard residue; d: D form.

Legend:
[1] = tested on: VEGF-induced angiogenesis; assay: in vivo rabbit eye model assay, VEGF-induced corneal angiogenesis
Description: Hydron polymer pellets containing growth factor and monoclonal antibodies (mAbs) were prepared as described by D'Amato, et al., Proc. Natl. Acad. Sci., 91:4082–4085 (1994). […] In addition, hydron pellets were prepared which contained either 40 μg of the mAb P1F6 (anti-αvβ5) or the control antibody, LM609 (anti-αvβ3), in PBS.
All of the mAbs tested were purified from ascites fluid using Protein-A Sepharose CL-4B affinity column chromatography according to well-known methods. The eluted immunoglobulin was then dialyzed against PBS and treated with Detoxi-gel (Pierce Chemicals, Rockford, Ill.) to remove endotoxin. […] Monoclonal antibodies were therefore tested for the presence of endotoxin with the Chromogenic Limulus Amebocyte Lysate Assay (BioWhittaker, Walkersville, Md.) and only those mAbs without detectable endotoxin were used in the rabbit eye model assay.
Approximately 12 μl of casting material was placed into each peg and polymerized overnight in a sterile hood. Pellets were then sterilized by ultraviolet irradiation.
A series of eight animals were used for paired eye experiments where each animal received a Hydron implant containing a preselected cytokine with a preselected antibody or control immunoglobulin. Specifically, for each rabbit, one cornea was surgically implanted with a Hydron pellet containing either bFGF or VEGF in conjunction with mAb P1F6 and the other cornea was treated with either bFGF or VEGF in conjunction with MAb LM609. […]
The effects of specific mAb integrin immunoreactivity on the above cytokine-induced angiogenesis is also quantified as shown in FIGS. 2A and 2B. […] Photographs were recorded on Kodak Ektachrome 64T slide film and images were converted for computer-assisted quantitation using Biorad's Molecular Analyst 1.1 software after acquisition through a Model GS670 imaging densitometer. […]
Each experiment consisted of eight rabbits in which one eye received a pellet comprising 100 nanograms (ng) bFGF and the other eye received a pellet comprising 1 microgram (ug) VEGF. […] After 7 days, the cornea were evaluated as described above.

FgM tumors = assay: tumor regression on chick CAM, FgM tumors, intravenous peptide; format: in vivo; details: 100 ug peptide intravenously 18 hours postimplantation; 48 hours more
Description: In one particular set of assays, additional tumor regression assays were performed with the αvβ5-reactive peptide 85189 (SEQ ID NO 9) against 69601 (SEQ ID NO 5) as a control. The assays were performed as described above with the exception that 100 ug of peptide was intravenously injected into the CAM at 18 hourst postimplantation of the various tumors which in this case included UCLAP-3, M21-L and FgM tumor types. After 48 hours more, the tumors were then resected and wet weights were obtained.

[2] = tested on: M21L human melanoma tumors; assay: chimeric mouse:human (SCID) assay, M21L melanoma tumor growth; format: in vivo; details: for tumor volume (FIG. 9): 250 μg peptide intraperitoneally 3 times per week over 3 weeks; for tumor volume (FIG. 21): M21-L tumors, peptides compared with mAB LM609
Description: An in vivo chimeric mouse:human model was generated by replacing a portion of skin from a SCID mouse with human neonatal foreskin. The in vivo chimeric mouse:human model was prepared essentially as described in Yan, et al., J. Clin. Invest., 91:986–996 (1993). Briefly, a 2 cm^2 square area of skin was surgically removed from a SCID mouse (6–8 weeks of age) and replaced with a human foreskin. The mouse was anesthetized and the hair removed from a 5 cm^2 area on each side of the lateral abdominal region by shaving. Two circular graft beds of 2 cm^2 were prepared by removing the full thickness of skin down to the fascia. Full thickness human skin grafts of the same size derived from human neonatal foreskin were placed onto the wound beds and sutured into place. The graft was covered with a Band-Aid which was sutured to the skin. Micropore cloth tape was also applied to cover the wound.
After the skin graft was established, the human foreskin was inoculated with melanoma cells. The M21L human melanoma cell line was used to form the solid human tumors on the human skin grafts on the SCID mice. A single cell suspension of 2×10^6 M21L was injected intradermally into the human skin graft. The mice were then observed for 2 to 4 weeks to allow growth of measurable human tumors.
After a measurable tumor was established, either 250 μg of the peptide (in a volume of 100 μl) having SEQ ID NO 9 (cyclic RGD-containing peptide Arg-Gly-Asp-D-Phe-Asn-NMeVAL) or a control peptide, cyclo Arg-βAla-Asp-D-Phe-Val, were injected intraperitoneally into the mouse 3 times per week over 3 weeks. At the end of this time, the tumor was excised and analyzed by weight and histology.
In additional assays with the SCID mice model having measurable M21-L tumors, in a preliminary analysis, a dose response curve was performed for peptides 69601 (control) and 85189 (test) injected over a concentration range of 10 to 250 μg/ml. The mean volume and weight of resected tumors following treatment were determined with the results respectively shown in FIGS. 22A and 22B.
For analyzing peptide 85189 treatment effectiveness over a time course, two treatment regimens were evaluated in the same SCID tumor model. In one assay, treatment with either peptide 85189 or 69601 was initiated on day 6, with day 0 being the day of M21-L tumor injection of 3×10^6 cells subcutaneously into mouse skin, with intraperitoneal injections of 250 μg/ml peptide 85189 or control 69601 every other day until day 29. The other assay was identically performed with the exception that treatment was initiated on day 20. At the end of the assays, the tumors were resected and the mean tumor volume in mm^3 was determined. The data was plotted as this value +/− the standard error of the mean.

Row | Molecule | corneal blood vessel growth at 7 days, VEGF-stimulated eyes ([1]; peptide s.q. 50 ug per kg initial, 20 ug/kg daily, 1 ug VEGF pellet) | effect on tumor wet weight, FgM (FgM tumors) | tumor volume (FIG. 9) [2] | tumor volume (FIG. 21) [2] | inhibition of corneal blood vessel growth ([1]; peptide s.q. 50 ug per kg initial, 20 ug/kg daily, 7 days, 1 ug VEGF pellet) | inhibition of tumor growth over a time course (mean tumor volume) ([2]; 250 μg/ml intraperitoneally every other day from day 6 or day 20 until day 29) | inhibition of M21-L tumor growth, dose response (volume and weight) ([2]; 10 to 250 μg/ml, preliminary analysis) | most effective dosage ([2]; range tested 10 to 250 μg/ml) | inhibition of VEGF-induced corneal angiogenesis ([1]; Hydron pellet with 750 ng VEGF and 40 μg mAb, postoperative day 10)
1 | cyclo(Arg-Ala-Asp-D-Phe-Val) (cyclo(RAD[dF]V); SMILES CC(C)[C@@H]1NC(=O)[C@@H](Cc2ccccc2)NC(=O)[C@H](CC(=O)O)NC(=O)[C@H](C)NC(=O)[C@H](CCCNC(=N)N)NC1=O) [peptide 69601, reference compound] | substantial corneal blood vessel growth | lack of effect | greater than 300 mm^3 | approximately 360 mm^3 | – | – | – | – | –
2 | cyclo(Arg-Gly-Asp-D-Phe-NMeVal) [peptide 85189] | – | reduction in tumor weight | approximately 25 mm^3 | below 25 mm^3 | ~100% | inhibited tumor growth | effective at inhibiting M21-L tumor growth | 250 µg/mL | –
3 | LM609: mouse monoclonal antibody, anti-αvβ3 (antibody, V domains shown) VH: EVQLEESGGGLVKPGGSLKLSCAASGFAFSSYDMSWVRQIPEKRLEWVAKVSSGGGSTYYLDTVQGRFTISRDNAKNTLYLQMSSLNSEDTAMYYCARHNYGSFAYWGQGTLVTVSA VL: ELVMTQTPATLSVTPGDSVSLSCRASQSISNHLHWYQQKSHESPRLLIKYASQSISGIPSRFSGSGSGTDFTLSINSVETEDFGMYFCQQSNSWPHTFGGGTKLEIKRA | – | – | – | approximately 60 mm^3 | – | – | – | – | not effective at inhibiting VEGF-induced angiogenesis; also recorded: minimal effect on VEGF-induced angiogenesis
